Assay results: patent US20110152207A1, “USE OF VITAMIN D GLYCOSIDES AND SULFATES FOR TREATMENT OF DISEASE” (priority 2009, published 2011)
Marks after values point to notes of the source that are not given here. Each block holds one compound with its values, some of them ahead of it.

Legend:
[1] = system: DSS-induced inflammation of the lower colon; test: Dextran sodium sulfate (DSS) mouse model of IBD; assay type: in vivo; settings: DSS mice
Description: (§1) In this example, β-gluc-1,25-D3 compounds, alone or in combination with 25-β-glucuronide-25-hydroxyvitamin D3 compounds (hereinafter β-gluc-25-D3) were incorporated into the diet of mice and compared to equimolar 1,25-D3 with respect to therapeutic effects on IBD and induction of calcemia. A standard mouse model of IBD comprising administering dextran sodium sulfate (DSS) to induce inflammation of the lower colon was used to study these effects. Vitamin D treatments were first initiated for 4 days. After 4 days, mice were fed DSS-water for 7 days, allowed one day to recover, and sacrificed. Colon length, plasma calcium, fecal blood score, and body weight were assayed. Colon length is a standard marker of intestinal inflammation in the literature, with shortened colon length being an indicator of inflammation. A 1-cm section of the mid-colon was removed, fixed in formalin, and stained with hematoxylin & eosin for microscopic histopathologic evaluation by a veterinary pathologist blinded to the treatments. Each tissue section received a score from 0 to 4 reflecting absence of lesion to severe, extensive lesion for each of three criteria: (1) the degree of erosion/ulceration of colon mucosa; (2) the degree of infiltration of the tissues by inflammatory cells; and (3) the degree of submucosal edema. The sum of the score of each of these criteria constitutes the histopathological score for the tissue with a zero score representing normal tissue based on all criteria, and the worst possible outcome being a score of 12.

[2] = Plasma calcium in the DSS mouse model of IBD; assay type: in vivo; settings: DSS mice, 5000 ng/day in diet
Description: as §1

[3] = Hypercalcemic effect: plasma calcium in rats under continuous subcutaneous infusion; assay type: in vivo; settings: for Plasma Calcium Mean ± SD: 12th day, in mg/dL (unit assumed)
Protocol: The pumps were filled aseptically with the appropriate dose of drug dissolved in propylene glycol. The pumps were surgically implanted under the skin on the dorsal neck and shoulder area aseptically. On the 12th day of infusion, rats were deeply anesthetized (isofluorane inhalation) and blood was collected by cardiac puncture for plasma calcium determination. The plasma calcium levels were determined by standard methods.

[4] = system: Cyp24; test: Cyp24 mRNA expression in duodenum of mice after a single oral dose; assay type: in vivo; settings: for Cyp24 expression in the duodenum, induction over control mice: 24 pmol per os
Protocol: (§2) Mice were decapitated 6 hrs later following light anesthesia under inhaled halothane. […] Tissue samples were flushed with ice-cold phosphate-buffered saline and immediately homogenized in 1 ml of TRIzol® reagent (Invitrogen Corp., Carlsbad, Calif.). Samples were then kept frozen at −86° C. prior to processing for RNA. For processing RNA, each TRIzol® homogenate was thawed at room temperature and 500 μl placed in a clean microfuge tube, mixed thoroughly with 100 μl chloroform for 15 sec and then centrifuged at 12,000×g for 15 min at 4° C. The upper aqueous phase was removed and mixed with 0.93 volumes of 75% EtOH. The mixture was then applied to an RNeasy spin column (Qiagen Inc., Germantown, Md.) and processed as described by the manufacturer with the exception that an additional wash with 2M NaCl/2 mM EDTA (pH 4.0) was included (Das et al. J Vet Diagn Invest. 2009; 21:771-778). RNA was eluted in 50 μl of water and the concentration obtained by UV spectrometry. One microgram of RNA was then used as a template for production of cDNA in a 20-μl reaction volume using random hexamers and Superscript III as described by the manufacturer (Invitrogen, Carlsbad, Calif.). Afterwards, samples were diluted to 100 μl final volume with TE buffer and stored at −20° C. prior to PCR analysis. Quantitative real-time RT-PCR was performed using a Stratagene Mx3005p cycler (Stratagene, La Jolla, Calif.) and PerfeCTa® SYBR® Green FastMix®, ROX reagent (Quanta Biosciences, Gaithersburg, Md.). Amplification of target cDNAs was accomplished with the following primers: Aliquots (8.3 ng) of cDNA were amplified under the following conditions: 95° C. for 30 sec, followed by 45 cycles of 95° C. for 1 sec and 57° C. for 30 sec. […] Oligonucleotides were obtained from Integrated DNA Technologies (Coralville, Iowa).

[5] = system: β-glucuronidase activity, duodenum lumen contents; test: β-glucuronidase cleavage in duodenum lumen contents, free 1,25-D3 by RIA; assay type: in vitro ADME, rats; settings: 150 pg added
Protocol: (§3) The proximal 25 cm of duodenum/jejunum, the caudal 12 cm of ileum, and the cranial 12 cm of colon were removed. The contents from the lumen of each section were flushed with 3 ml water, collected, and pooled. Three-ml aliquots of intestinal contents were placed into tubes. To the tubes, either 2100 pg (3.53 pmoles) β-gluc-1,25-D3 was added and incubated at 37° C. for 0, 1, 3, or 6 hrs, or 150 pg (0.36 pmoles) of 1,25-D3 was added and incubated for 0 or 6 hrs. […] Acetonitrile (3 ml) was added to each tube after incubation to end all enzymatic activity, after which the 1,25-D3 was extracted. Tritiated 1,25-D3 was added to each tube to assess extraction efficiency. The preparations were cleaned by HPLC, and the samples were analyzed for 1,25-D3 content by RIA (Heartland Assays, Ames, Iowa) (Hollis et al., J. Steroid Biochem. Mol. Biol. 2007 103(3-5):473-6).

[6] = system: Cyp24; test: Cyp24 mRNA expression in colon of mice after a single oral dose; assay type: in vivo; settings: 6 hrs
Protocol: as §2

[7] = Plasma 1,25-D3 concentration in mice after a single oral dose (RIA)
[8] = system: intestinal inflammation; settings: Froicu et al., cited from earlier work
[9] = system: DU-145 cells; test: DU-145 cell proliferation (CELLTITER BLUE); assay type: cell-based, human; settings: 4 days, control = 100
Protocol: LNCaP cells (ATCC # CRL-1740) are malignant prostate cancer cells originally obtained from a lymph node of a person whose prostatic cancer had metastasized to the lymph node. LNCaP cells were grown in tissue culture using RPMI-1640 media with 10% fetal bovine serum. Wells of two 48-well tissue culture plates were seeded with 5000 LNCaP cells/well. […] Half the media was replaced with fresh media with treatments on the third day of the treatment period. By day 6 of treatment, wells of control untreated cells were approximately 60% confluent. The live cell numbers in each well at the end of treatment were assessed using the “CELLTITER BLUE”-brand assay kit (Promega Corp., Madison, Wis.). The assay is based on the ability of living cells to convert a redox dye (resazurin) into a fluorescent end product (resorufin). […] A similar study was performed using a second human-derived prostatic cancer cell line known as DU-145 (ATCC# HTB-81). […] Exp. Med. Biol. 1995 375:53-63). The DU-145 cells were propagated in Eagle's Minimum Essential Medium with 10% fetal bovine serum. The cells were treated in culture for just 4 days, with half the media replaced with fresh media on day 3 of treatment. Cells were 40% confluent at the end of treatment.

[10] = system: β-glucuronidase activity, ileum lumen contents; test: β-glucuronidase cleavage in ileum lumen contents, free 1,25-D3 by RIA; assay type: in vitro ADME, rats; settings: 150 pg added
Protocol: as §3

[11] = system: LNCaP cells; test: LNCaP cell proliferation (CELLTITER BLUE); assay type: cell-based, human; settings: six days, control = 100
Protocol: LNCaP cells (ATCC # CRL-1740) are malignant prostate cancer cells originally obtained from a lymph node of a person whose prostatic cancer had metastasized to the lymph node. LNCaP cells were grown in tissue culture using RPMI-1640 media with 10% fetal bovine serum. Wells of two 48-well tissue culture plates were seeded with 5000 LNCaP cells/well. […] Half the media was replaced with fresh media with treatments on the third day of the treatment period. By day 6 of treatment, wells of control untreated cells were approximately 60% confluent. The live cell numbers in each well at the end of treatment were assessed using the “CELLTITER BLUE”-brand assay kit (Promega Corp., Madison, Wis.). The assay is based on the ability of living cells to convert a redox dye (resazurin) into a fluorescent end product (resorufin).

[12] = calcitriol = 1; cited from earlier work

Plasma Calcium [2]: 8.68 ± 0.27^d mg/dl
Compound: 25-β-glucuronide-25-hydroxyvitamin D3 [β-gluc-25-D3]
Histopathology score (0-12) ([1]; 5000 ng/day): 8.22 ± 0.72 | effect on IBD by itself ([1]; 5000 ng/day): essentially ineffective by itself | Colon Length ([1]; 5000 ng/day in diet): 5.50 ± 0.20 cm | Final Body Weight ([1]; 5000 ng/day in diet): 21.16 ± 0.53 g | Fecal Blood Score ([1]; 5000 ng/day, scale 0-3): 1.05 ± 0.34

Compound: C=C1/C(=C\C=C2/CCC[C@]3(C)[C@@H]([C@H](C)CCCC(C)(C)O)CC[C@@H]23)C[C@@H](O)C[C@@H]1O [1,25-D3, 1,25-dihydroxyvitamin D3, reference compound]
Plasma Calcium Mean ± SD ([3]; 10 ng/day continuous s.c. infusion): 10.41 ± 0.27 | Plasma Calcium Mean ± SD ([3]; 15 ng/day continuous s.c. infusion): 10.78 ± 0.26 | lowest dose inducing a statistically significant increase in plasma calcium levels ([3]; continuous s.c. infusion): 15 ng/day | Significantly greater than control? Duncan's Multiple Range Test ([3]; plasma calcium, 15 ng/day): Yes | Cyp24 expression in the duodenum, induction over control mice ([4]; 1 hour): 350 fold | Cyp24 expression in the duodenum, induction over control mice ([4]; 3 hours): 1600 fold | Cyp24 expression in the duodenum, induction over control mice ([4]; 6 hours): more than 2500 fold | induction of Cyp24 gene expression in the duodenum ([4]; 48 pmol per os, 6 hrs): > 1000 fold | Measured Free 1,25-dihydroxy vitamin D ([5]; 0 hrs incubation, 37° C.): 96 pg | Measured Free 1,25-dihydroxy vitamin D ([5]; 6 hrs incubation): 117 pg | increase in Cyp24 in the colon over control mice ([6]; 24 pmol per os): about 5 fold | increase in Cyp24 expression in the colon ([6]; 48 pmol per os, relative to untreated mice): ~4.8±4 fold | plasma 1,25-D3 concentration ([7]; 6 pmol per os, 6 hr time point): not significantly increased | peak plasma 1,25-D3, fold over control mouse plasma 1,25-D3 ([7]; 24 pmol per os): ~14 fold | peak plasma concentration of 1,25-D3 ([7]; 24 pmol per os): 1280 pg/mL | time of peak plasma 1,25-D3 concentration ([7]; 24 pmol per os): 1 h | plasma 1,25-D3 concentration ([7]; 24 pmol per os, 24 hrs after treatment): slightly below the concentration observed in control animals | hypercalcemia at the effective dose ([8]; 50 ng): results in hypercalcemia | dose required to improve intestinal inflammation ([8]; mouse model of inflammatory disease): 50 ng | Colon Length ([1]; 10 ng/day in diet): 5.52 ± 0.20 cm | Final Body Weight ([1]; 10 ng/day in diet): 21.39 ± 0.82 g | Fecal Blood Score ([1]; 10 ng/day, 0 = no blood to 3 = multiple blood spots): 0.33 ± 0.12^c | Histopathology score (0-12) ([1]; 10 ng/day, 0 = no lesions, 12 = severe): 7.44 ± 0.50 | Histopathology score (0-12) ([1]; 50 ng/day): 5.89 ± 0.54^c | histopathological scores among the effective treatments ([1]; 50 ng/day): numerically the best | improving inflammation ([1]; 50 ng/day): less effective than the 70-ng/day β-gluc-1,25-D3 plus 5000 ng/day β-gluc-25-D3 combination treatment | Colon Length ([1]; 50 ng/day in diet): 5.74 ± 0.17 cm | Final Body Weight ([1]; 50 ng/day in diet): 20.82 ± 0.43 g | Fecal Blood Score ([1]; 50 ng/day, scale 0-3): 0.22 ± 0.12^c | Proliferation index (Mean ± SEM) ([9]; DU-145, 20 nM): 94.7 ± 1.7 | Proliferation index (Mean ± SEM) ([9]; DU-145, 100 nM): 89.3 ± 2.4 | Measured Free 1,25-dihydroxy vitamin D ([10]; 0 hrs incubation): 129 pg | Measured Free 1,25-dihydroxy vitamin D ([10]; 6 hrs incubation): 128 pg | Proliferation index (Mean ± SEM) ([11]; 20 nM): 69.7 ± 8.4 | Proliferation index (Mean ± SEM) ([11]; 100 nM): 63.8 ± 7.3

Compound: C=C1/C(=C\C=C2/CCC[C@]3(C)[C@@H]([C@H](C)/C=C/[C@@H](O)C4CC4)CC[C@@H]23)C[C@@H](O)CC1O (stereo partly drawn) [calcipotriol]
calcemic index [12]: about 0.01
